Reference: patent publication US20250319095A1, “USE OF BENZO[…] INCREASE SENSITIVITY TO […] A CHRONIC SSRI REGIMEN” (Compass Pathfinder Limited, priority 2020, published 2025)
“And” between values parts separate entries of the source, which are not always exact repeats. Equal entries are not always repeated.

Legend:
[1] = oral dose equivalence; cited from earlier work
male C57BL/6J mice = test: Psilocybin head twitch response with chronic diazepam pre-treatment; type: in vivo
Protocol: Sixty-two (60 plus 2 spares;) male C57BL/6J mice (20-25 g upon arrival) were purchased from Charles River UK. Animals were group housed (in 3 s and a pair) in polypropylene cages. Mice were maintained on a normal phase 12 h light-dark cycle (lights on: 07:00-19:00 h) with free access to standard rodent maintenance diet (standard pelleted diet Envigo 2018) and filtered tap water. The holding room was maintained at a temperature of 21±4° C. and relative humidity was 55±15% with prolonged periods below 40% RH or above 70% RH avoided as detailed in the UK Code of Practice. As a refinement, each cage contained sawdust, sizzle nest, a red house, Perspex tunnel, plastic chew stick and a nestlet so that the mice can make nests and facilitate warmth. Mice were weighed upon arrival and provided with wet mash overnight. The following morning, mice were weighed, and the mash removed.
Mice were weighed and allocated into 6 treatment groups by a statistician (as per Table 20 below). […] For groups A-D animals were placed individually in clean cages with a light dusting of sawdust immediately following psilocybin administration (0.3 mg/kg, s.c) for head twitch response assessment. Head twitches were counted by a trained observer over a 30 minute period.
Statistical significance was tested using two-way analysis of variance with treatment and observer as cofactors (Table 21 below).

5HT2A = biological target: T1, 5HT2A (Mus musculus, UniProt P35363); test: [3H]MDL100907 binding in frontal cortical membranes (5HT2A Kd and Bmax)
T1 construct: homogenates were prepared from frontal cortices sampled from groups E and F; from tissue; host or cells: mouse frontal cortex membranes (homogenate)
T1 sequence (P35363 whole entry): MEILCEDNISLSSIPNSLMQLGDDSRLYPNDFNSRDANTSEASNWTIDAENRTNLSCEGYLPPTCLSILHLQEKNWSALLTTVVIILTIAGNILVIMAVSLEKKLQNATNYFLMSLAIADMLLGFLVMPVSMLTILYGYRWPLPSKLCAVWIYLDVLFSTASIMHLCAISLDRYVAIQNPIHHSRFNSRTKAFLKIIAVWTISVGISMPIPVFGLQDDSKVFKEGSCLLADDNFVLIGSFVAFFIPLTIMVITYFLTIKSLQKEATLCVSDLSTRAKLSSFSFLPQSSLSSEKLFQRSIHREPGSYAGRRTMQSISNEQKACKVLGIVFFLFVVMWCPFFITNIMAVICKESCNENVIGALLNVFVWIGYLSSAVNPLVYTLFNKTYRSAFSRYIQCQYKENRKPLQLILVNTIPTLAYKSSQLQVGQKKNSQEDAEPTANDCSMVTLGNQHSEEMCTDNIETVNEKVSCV
Protocol: To prepare the homogenate, frontal cortices from each animal were homogenized individually in 40 volumes (w/v) of ice cold assay buffer using a tight-fitting glass/Teflon homogenizer and centrifuged at 39,500×g for 10 min. The supernatant was discarded, and the pellet re-suspended in 40 volumes (w/v) of assay buffer and the tissue washed by centrifugation two more times. The final pellet was re-suspended in ice-cold assay buffer to 6.25 mg weight wet of tissue/ml and used immediately in the binding assay. Aliquots of final membrane preparations were also stored at −80 C until required for protein determination. All centrifugations will be carried out at 4° C.
To examine binding, the frontal cortical membranes (400 μl; equivalent to 2.5 mg wet weight of tissue/tube) were incubated with 50 μl of [3H] MDL 100907 (8 concentrations: 0.025, 0.05, 0.1, 0.2, 0.4, 0.8, 1.6, 3.2 nM) and either 50 μl of buffer (total binding) or 50 μl of 10 μM ketanserin (to define nonspecific binding) for 60 min at 25 C. […]
Membrane bound radioactivity was recovered by filtration under vacuum through Skatron 11731 filters, presoaked in 0.5% polyethylenimine (PEI) using a Skatron cell harvester. Filters were rapidly washed with ice cold wash buffer (wash setting 9,9,0) and radioactivity determined by liquid scintillation counting (1 ml Packard MV Gold scintillator). […]

| Structure (SMILES) | Relative Potency [1] [mg] | also measured |
| --- | --- | --- |
| Cc1nnc2n1-c1ccc(Cl)cc1C(c1ccccc1)=NC2 [Alprazolam, alprazolam] | 0.5 |  |
| O=C1CN=C(c2ccccc2Cl)c2cc([N+](=O)[O-])ccc2N1 [Clonazepam, clonazepam] | 0.25 to 0.5 |  |
| O=C(O)C1N=C(c2ccccc2)c2cc(Cl)ccc2NC1=O (stereo not drawn) [Clorazepate, clorazepate] | 7 |  |
| CN1C(=O)CN=C(c2ccccc2)c2cc(Cl)ccc21 [Diazepam, diazepam] |  | psilocybin HTR, change with diazepam pretreatment (male C57BL/6J mice; 2 h post diazepam pretreatment): trend increase; HTR, change with diazepam pretreatment (male C57BL/6J mice; HTR at 10-15 and 20-25 minutes analyzed separately): significant increase; HTR, change with diazepam pretreatment (male C57BL/6J mice; over 30 minutes): trend increase; Bmax (fmoles/mg protein) (5HT2A): 271 fmoles/mg protein and 339 fmoles/mg protein and 334 fmoles/mg protein and 360 fmoles/mg protein and 314 fmoles/mg protein and 376 fmoles/mg protein; Bmax (pM) (5HT2A): 74.0 pM and 78.3 pM and 77.8 pM and 93.6 pM and 87.2 pM and 87.6 pM |
| Clc1ccc2c(c1)C(c1ccccc1)=NCc1nncn1-2 [Estazolam, estazolam] | 0.5 to 1 |  |
| CCN(CC)CCN1C(=O)CN=C(c2ccccc2F)c2cc(Cl)ccc21 [Flurazepam, flurazepam] | 10 |  |
| O=C1Nc2ccc(Cl)cc2C(c2ccccc2Cl)=NC1O (stereo not drawn) [Lorazepam, lorazepam] | 1 |  |
| Cc1ncc2n1-c1ccc(Cl)cc1C(c1ccccc1F)=NC2 [Midazolam, midazolam] | 3.3 |  |
| Fc1ccccc1C1=NCC(=S)N(CC(F)(F)F)c2ccc(Cl)cc21 [Quazepam, quazepam] | 13 |  |
| CN1C(=O)C(O)N=C(c2ccccc2)c2cc(Cl)ccc21 (stereo not drawn) [Temazepam, temazepam] | 10 |  |
| Cc1nnc2n1-c1ccc(Cl)cc1C(c1ccccc1Cl)=NC2 [Triazolam, triazolam] | 0.25 |  |
